Test results from ChEMBL document CHEMBL4616721, “Nitrogen-Walk Approach to Explore Bioisosteric Replacements in a Series of Potent A2B Adenosine Receptor Antagonists” (J Med Chem, 2020).

Experiments:
Cytochrome P450 3A4 = Cytochrome P450 3A4 (Homo sapiens, UniProt P08684); experiment: Inhibition of CYP3A4 (unknown origin) expressed in insect cell microsomes using dibenzylfluorescein substrate by fluorescence based assay; format: ADME
CYP2D6 [1] = target: T1, CYP2D6 (Homo sapiens, UniProt P10635); experiment: Inhibition of CYP2D6 (unknown origin) expressed in insect cell microsomes at 1 uM using dibenzylfluorescein substrate by fluorescence based assay relative to control; format: ADME; conditions: insect cell microsomes expressing CYP2D6, probe dibenzylfluorescein
T1 sequence (P10635 whole entry): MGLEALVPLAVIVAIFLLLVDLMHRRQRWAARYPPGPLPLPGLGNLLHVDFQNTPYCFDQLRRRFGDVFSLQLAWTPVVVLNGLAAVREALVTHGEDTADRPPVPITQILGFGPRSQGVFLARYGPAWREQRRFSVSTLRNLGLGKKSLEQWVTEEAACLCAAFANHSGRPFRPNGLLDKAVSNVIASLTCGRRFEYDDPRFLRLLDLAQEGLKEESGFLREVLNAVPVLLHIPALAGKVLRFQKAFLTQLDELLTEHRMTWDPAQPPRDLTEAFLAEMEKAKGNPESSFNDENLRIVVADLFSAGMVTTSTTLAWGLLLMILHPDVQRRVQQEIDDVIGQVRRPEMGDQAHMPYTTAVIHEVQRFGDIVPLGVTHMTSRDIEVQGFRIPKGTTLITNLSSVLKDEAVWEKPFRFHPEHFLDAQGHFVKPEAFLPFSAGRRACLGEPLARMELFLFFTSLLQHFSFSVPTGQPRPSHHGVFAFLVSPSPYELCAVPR

CYP2D6 [2] = target: T1, CYP2D6; experiment: Inhibition of CYP2D6 (unknown origin) expressed in insect cell microsomes at 10 uM using dibenzylfluorescein substrate by fluorescence based assay relative to control; format: ADME; conditions: insect cell microsomes expressing CYP2D6, probe dibenzylfluorescein
[3] = Drug metabolism in human liver microsomes after 60 mins in presence of NADP,glucose-6-phosphate and glucose-6-phosphate dehydrogenase by UPLC-MS/MS analysis; format: ADME, Microsome; conditions: read-out: Drug metabolism
[4] = Solubility in pH 7 PBS incubated for 4 hrs by nephelometry; format: physicochemical
Adenosine receptor A1 = target: T2, Adenosine receptor A1 (Homo sapiens, UniProt P30542); experiment: Displacement [3H]DPCPX from human adenosine A1 receptor expressed in CHO cell membranes incubated for 60 mins by scintillation counting method
T2 sequence (P30542 whole entry): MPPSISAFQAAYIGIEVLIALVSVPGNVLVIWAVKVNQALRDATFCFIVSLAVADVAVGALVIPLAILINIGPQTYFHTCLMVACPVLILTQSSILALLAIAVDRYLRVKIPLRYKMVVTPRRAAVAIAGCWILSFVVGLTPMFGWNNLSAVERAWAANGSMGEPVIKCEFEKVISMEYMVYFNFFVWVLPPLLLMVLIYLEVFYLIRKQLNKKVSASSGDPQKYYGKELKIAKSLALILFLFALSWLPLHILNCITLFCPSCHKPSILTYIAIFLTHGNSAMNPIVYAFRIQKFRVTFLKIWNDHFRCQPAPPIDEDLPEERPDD

Adenosine receptor A2a = Adenosine receptor A2a (Homo sapiens, UniProt P29274); experiment: Displacement [3H]ZM241385 from adenosine A2A receptor in human HeLa cell membranes incubated for 30 mins by scintillation counting method
Sequence of Adenosine receptor A2a (P29274 whole entry): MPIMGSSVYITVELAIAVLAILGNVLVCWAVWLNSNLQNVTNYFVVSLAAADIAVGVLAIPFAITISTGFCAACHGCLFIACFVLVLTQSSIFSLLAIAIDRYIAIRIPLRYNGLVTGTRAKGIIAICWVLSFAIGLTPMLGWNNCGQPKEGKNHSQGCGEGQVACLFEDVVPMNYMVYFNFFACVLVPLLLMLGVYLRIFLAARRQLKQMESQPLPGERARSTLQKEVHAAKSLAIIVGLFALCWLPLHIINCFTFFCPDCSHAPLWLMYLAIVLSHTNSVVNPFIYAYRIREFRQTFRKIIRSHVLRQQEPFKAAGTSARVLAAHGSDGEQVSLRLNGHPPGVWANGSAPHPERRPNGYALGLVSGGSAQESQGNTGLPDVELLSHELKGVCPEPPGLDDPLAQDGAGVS

Adenosine receptor A2b = target: T3, Adenosine receptor A2b (Homo sapiens, UniProt P29275); experiment: Displacement [3H]DPCPX from human adenosine A2B receptor expressed in HEK293 cell membranes incubated for 60 mins by scintillation counting method
T3 sequence (P29275 whole entry): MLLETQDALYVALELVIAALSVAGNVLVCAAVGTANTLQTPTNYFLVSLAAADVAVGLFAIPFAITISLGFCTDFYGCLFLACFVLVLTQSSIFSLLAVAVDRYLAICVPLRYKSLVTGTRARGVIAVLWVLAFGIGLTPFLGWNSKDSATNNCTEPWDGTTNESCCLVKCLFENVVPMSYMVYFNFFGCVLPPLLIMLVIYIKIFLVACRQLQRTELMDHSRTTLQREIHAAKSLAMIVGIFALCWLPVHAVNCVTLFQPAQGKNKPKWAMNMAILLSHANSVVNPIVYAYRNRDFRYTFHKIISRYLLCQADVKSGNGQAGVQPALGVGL

Adenosine receptor A3 = target: T4, Adenosine receptor A3 (Homo sapiens, UniProt P0DMS8); experiment: Displacement [3H]NECA from adenosine A3 receptor in human HeLa cell membranes incubated for 180 mins by scintillation counting method
T4 sequence (P0DMS8 whole entry): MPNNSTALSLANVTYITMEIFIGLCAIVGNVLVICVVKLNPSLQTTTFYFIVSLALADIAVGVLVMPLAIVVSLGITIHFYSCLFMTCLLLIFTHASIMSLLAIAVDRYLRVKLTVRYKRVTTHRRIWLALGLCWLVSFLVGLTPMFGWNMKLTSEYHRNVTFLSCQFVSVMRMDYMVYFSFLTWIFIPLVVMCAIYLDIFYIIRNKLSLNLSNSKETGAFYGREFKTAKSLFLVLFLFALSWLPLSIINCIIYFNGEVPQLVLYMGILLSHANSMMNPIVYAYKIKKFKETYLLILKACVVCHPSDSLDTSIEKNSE

Sequence of Cytochrome P450 3A4 (P08684 whole entry): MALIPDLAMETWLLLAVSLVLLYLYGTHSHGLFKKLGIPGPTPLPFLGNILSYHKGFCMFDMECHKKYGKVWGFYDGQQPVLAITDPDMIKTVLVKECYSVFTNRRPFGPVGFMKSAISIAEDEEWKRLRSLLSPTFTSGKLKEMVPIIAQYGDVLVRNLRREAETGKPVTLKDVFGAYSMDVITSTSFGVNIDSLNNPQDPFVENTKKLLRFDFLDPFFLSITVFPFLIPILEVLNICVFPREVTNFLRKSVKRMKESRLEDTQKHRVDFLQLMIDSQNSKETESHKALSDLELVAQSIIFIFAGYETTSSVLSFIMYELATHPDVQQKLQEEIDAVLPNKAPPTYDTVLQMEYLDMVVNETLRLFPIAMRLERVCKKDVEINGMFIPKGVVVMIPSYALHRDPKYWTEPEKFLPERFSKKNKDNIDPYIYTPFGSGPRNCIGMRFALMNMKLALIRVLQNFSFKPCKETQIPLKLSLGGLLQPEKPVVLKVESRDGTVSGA

Molecule `CCOC(=O)C1=C(C)Nc2nc3ccccc3n2C1c1cocn1` (racemic) has an IC50 (Cytochrome P450 3A4) of 6410 nM, an inhibition at 1 µM (CYP2D6 [1]) of 13% and an inhibition at 10 µM (CYP2D6 [2]) of 19%. The metabolised at 1 h [3] was 5.62% and the solubility kinetic at 4 h [4] was > 20 µM.
Work on `CCOC(=O)C1=C(C)Nc2nc3ccccc3n2C1c1cnco1` (racemic) yielded a Ki (Adenosine receptor A1) of 233 nM, a Ki (Adenosine receptor A2a) of 282 nM and a Ki (Adenosine receptor A2b) of 508 nM. The Ki (Adenosine receptor A3) was 418 nM.
